Measured values taken from BindingDB's records for doi:10.1021/acs.jmedchem.3c00566 (Sichuan University, 2023).

Legend:
[1] = target: Cyclin-dependent kinase 2/cyclin A; test: Inhibition of CDK2/cyclin A (unknown origin)
[2] = target: Cyclin-dependent kinase 2 (Homo sapiens, UniProt P24941); test: Inhibition of CDK2 (unknown origin) expressed in baculovirus infected Sf9 cells in presence of [gamma-33p]-ATP and ATP
[3] = target: Cyclin-dependent kinase 5/p25; test: Inhibition of CDK5/p25 (unknown origin)

`O=C(Nc1csc(Cc2c(Cl)cccc2Cl)n1)NN1CCOCC1` [1-[2-(2,6-Dichloro-benzyl)-thiazol-4-yl]-3-morpholin-4-yl-urea] showed an IC50 [1] of 10 µM.
`CC(C)c1n[nH]c2c(NCc3ccc(-c4ccccn4)cc3)nc(NCC(C)(C)O)nc12` was tested, and the IC50 [2] was 9 nM.
With `Cc1cc(S(=O)(=O)NCCOCCOCCOCCOCCNc2cccc3c2C(=O)N(C2CCC(=O)NC2=O)C3=O)ccc1Nc1ncc(Br)c(Nc2cccc(F)c2C(N)=O)n1` (stereo not drawn) the IC50 [3] was 6.8 nM.
